Measured values reported in patent publication US20250170267A1, “ANTIBODY-DRUG CONJUGATE PRECURSOR AND INTERMEDIATE FOR SYNTHESIS THEREOF” (UBE Corporation, priority 2022, published 2025).
Where two headings read alike, the source gives them in different places. Numbered stars: 1 amine (or outer) side, 2 acyl side, 3 side chain; on linkers, the order of the positions; unused ones are H or OH. Square brackets hold non-standard residues; d marks the D form. Peptide text beside a SMILES is read from it. * marks the point of attachment. Dolaproine = CO[C@@H]([C@@H]1CCCN1)[C@@H](C)C(=O)O; X5 = C[C@@H](N[*:1])[C@@H](OC(=O)[*:2])c1ccccc1; NH(CH2CH2O)8Me = COCCOCCOCCOCCOCCOCCOCCOCCN*; Dil = CC[C@H](C)[C@H](NC)[C@@H](CC(=O)O)OC; X3 = C[C@@H](N*)[C@@H](OP(=O)(O)O)c1ccccc1; X1 = C[C@@H](N*)[C@@H](O)c1ccccc1; NMeV = CN[C@H](C(=O)O)C(C)C; X8 = c1[nH]nnc1CN*

Columns and labels:
porcine tubulin = molecular target: T1, porcine tubulin (Sus scrofa, UniProt P02550+P02554); assay: Tubulin polymerization inhibition test; type: biochemical
T1 construct: purchased Cytoskeleton, Inc. BK011P
Method: For measuring the tubulin polymerization inhibitory action, Tubulin Polymerization Assay Kit (manufactured by Cytoskeleton, Inc., BK011P) was used. A PIPES buffer containing porcine tubulin, GTP, MgCl2, EGTA, Glycerol, and a fluorescent reporter was prepared under ice-cooling as a reaction solution. The reaction solution was ice-cooled until it was used. A test compound solution was prepared by an aqueous solution containing 1.5% DMSO, and added to a 96 well plate (manufactured by Corning Inc., 3686) at 5 μL/well. The reaction solution was added thereto at 50 μL/well, the plate was placed in a microplate reader (FlexStation 3, manufactured by Molecular Device, LLC) in which the internal temperature was set to 37° C. in advance, and the fluorescence intensity measurement (excitation wavelength: 360 nm, detection wavelength: 420 nm) of each well was started. The fluorescence intensity was measured once every minute, and the measurement was continued for 60 minutes.
The tubulin polymerization inhibition rate (%) was calculated by the following equation.
[formula] • a: average amount of fluorescence intensity increase in vehicle-treated well (n=2) • b: average amount of fluorescence intensity increase in test compound-treated well (n=2)
Amount of fluorescence intensity increase: (average fluorescence intensity after 51 to 60 minutes from measurement start)−(average fluorescence intensity after 1 to 6 minutes from measurement start)

human liver lysosome = assay: Metabolism test using human liver lysosomal fraction; type: in vitro ADME; conditions: 37° C., 24 hours, released drug, LC-MS/MS
Method: To a reaction composition solution (X10 Catabolic Buffer (manufactured by SEKISUI-Xenotech, LLC., K5200))(60 μL) in which human liver lysosome (manufactured by SEKISUI-Xenotech, LLC., Cat No. H610.L 2.5 mg/mL)(corresponding to 0.125 mg of protein) was suspended and distilled water (manufactured by FUJIFILM Wako Pure Chemical Corporation, for HPLC)(10 μL) was added 1.2 μM test compound (antibody-drug conjugate produced in ADC Production examples)(25 μL) dissolved in PBS to prepare a reaction solution. After the reaction solution was incubated at 37° C. for 24 hours, “an antitumor drug molecule or an analog thereof, or a derivative thereof” released from the antibody-drug conjugate into the reaction solution was quantified by LC-MS/MS (high performance liquid chromatography/mass spectrometer system) under the following conditions. LC-MS/MS analysis conditions
(§1) LC: LC20 or LC30 HPLC system manufactured by Shimadzu Corporation
(§2) Column: Phenomenex Kinetex C18 (50×2.1 mm, 2.6 μm)
(§3) Column temperature: 40° C.
(§4) Mobile phase A: 0.1% aqueous solution of formic acid, Mobile phase B: 0.1% solution of formic acid in a mixture of 50% acetonitrile/methanol
(§5) Mode: Positive or Negative
(§6) The release rate (%) of drug was calculated by the following equation.

human liver Cathepsin B = molecular target: T2, human liver Cathepsin B (Homo sapiens, UniProt P07858); assay: Metabolism test using human liver Cathepsin B; type: in vitro ADME; conditions: 37° C., 24 hours, released drug, LC-MS/MS
T2 construct: human liver Cathepsin B (manufactured by Sigma-Aldrich Co. LLC, Cat No. C8571 25 μg/vial); purchased Sigma-Aldrich Co. LLC C8571; host or cells: human liver
Method: To human liver Cathepsin B (manufactured by Sigma-Aldrich Co. LLC, Cat No. C8571 25 μg/vial)(corresponding to 400 Unit/mL)(5 μL), X10 Catabolic Buffer (manufactured by SEKISUI-Xenotech, LLC., K5200)(10 μL), 2.5 mM Bovine Serum Albumin (manufactured by FUJIFILM Wako Pure Chemical Corporation, Cat No. 012-15093)(5 μL), and distilled water (manufactured by FUJIFILM Wako Pure Chemical Corporation, for HPLC)(55 μL) was added 1.2 μM test compound (antibody-drug conjugate prepared in ADC Production examples)(25 μL) dissolved in PBS to prepare a reaction solution. After the reaction solution was incubated at 37° C. for 24 hours, “an antitumor drug molecule or an analog thereof, or a derivative thereof” released from the antibody-drug conjugate into the reaction solution was quantified by LC-MS/MS (high performance liquid chromatography/mass spectrometer system) under the following conditions. LC-MS/MS analysis conditions
as §1, §2, §3, §4, §5, §6

[1] = porcine tubulin, 37° C., fluorescence over 60 minutes, read-out: IC50 value (tubulin polymerization inhibition)

T1 sequence (P02550 whole entry): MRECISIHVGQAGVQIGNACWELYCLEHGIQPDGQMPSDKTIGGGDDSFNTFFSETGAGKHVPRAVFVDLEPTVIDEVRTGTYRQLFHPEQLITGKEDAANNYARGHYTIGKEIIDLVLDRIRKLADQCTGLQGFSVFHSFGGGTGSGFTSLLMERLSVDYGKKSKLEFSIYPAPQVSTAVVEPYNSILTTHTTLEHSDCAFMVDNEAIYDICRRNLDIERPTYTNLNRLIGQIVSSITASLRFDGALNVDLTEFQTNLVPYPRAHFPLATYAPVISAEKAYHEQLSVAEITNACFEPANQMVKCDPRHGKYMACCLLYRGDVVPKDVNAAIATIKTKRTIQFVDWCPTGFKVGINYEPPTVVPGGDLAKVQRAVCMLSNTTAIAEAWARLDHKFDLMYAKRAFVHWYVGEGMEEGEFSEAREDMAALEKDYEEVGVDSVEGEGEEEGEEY
T1 sequence (P02554 whole entry): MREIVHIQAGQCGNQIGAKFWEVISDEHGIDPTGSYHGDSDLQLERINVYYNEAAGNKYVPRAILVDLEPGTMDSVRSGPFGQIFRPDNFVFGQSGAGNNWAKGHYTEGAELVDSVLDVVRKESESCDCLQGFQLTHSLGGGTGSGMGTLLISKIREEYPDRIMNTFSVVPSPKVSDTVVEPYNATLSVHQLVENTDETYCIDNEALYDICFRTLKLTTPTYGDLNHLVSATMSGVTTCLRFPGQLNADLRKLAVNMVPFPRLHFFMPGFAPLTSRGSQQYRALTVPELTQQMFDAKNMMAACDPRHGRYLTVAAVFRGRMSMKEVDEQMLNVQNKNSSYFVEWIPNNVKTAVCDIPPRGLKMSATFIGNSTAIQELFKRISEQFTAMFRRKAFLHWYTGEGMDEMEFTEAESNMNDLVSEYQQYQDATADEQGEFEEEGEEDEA

CC[C@H](C)[C@@H]([C@@H](CC(=O)N1CCC[C@H]1[C@H](OC)[C@@H](C)C(=O)N[C@H](C)[C@@H](O)c1ccccc1)OC)N(C)C(=O)[C@@H](NC(=O)[C@H](C(C)C)N(C)Cc1cc(N)ccc1F)C(C)C [Example U-008]
IC50 (porcine tubulin; [1]): ≤ 3 µM

CC[C@@]1(OC(=O)OCc2ccc(NC(=O)[C@H](CCCNC(N)=O)NC(=O)[C@@H](NC(=O)[C@H](CC(=O)N[C@H]3CCOC3=O)NC(=O)CCOCCOCCOCCOCCNC(=O)[C@H](CNC(=O)CCP(=O)(O)O)N3C(=O)C=CC3=O)C(C)C)cc2)C(=O)OCc2c1cc1n(c2=O)Cc2c-1nc1cc(F)c(C)c3c1c2[C@@H](NC(=O)CO)CC3 [Example 11]
Release rate (%) of drug from ADC (human liver lysosome): 64% | Release rate (%) of drug from ADC (human liver Cathepsin B): 30%

CCN(CC(=O)N[C@H]1CCc2c(C)c(F)cc3nc4c(c1c23)Cn1c-4cc2c(c1=O)COC(=O)[C@]2(O)CC)C(=O)OCc1ccc(NC(=O)[C@H](CCCNC(N)=O)NC(=O)[C@@H](NC(=O)[C@H](CC(=O)N[C@H]2CCOC2=O)NC(=O)CCOCCOCCOCCOCCNC(=O)[C@H](CNC(=O)CCP(=O)(O)O)N2C(=O)C=CC2=O)C(C)C)cc1 [Example 9]
Release rate (%) of drug from ADC (human liver lysosome): 98% | Release rate (%) of drug from ADC (human liver Cathepsin B): 40%

CC[C@H](C)[C@@H]([C@@H](CC(=O)N1CCC[C@H]1[C@H](OC)[C@@H](C)C(=O)N[C@H](C)[C@@H](O)c1ccccc1)OC)N(C)C(=O)[C@@H](NC(=O)[C@H](C(C)C)N(C)CCc1ccc(N)cc1F)C(C)C [Example U-016]
IC50 (porcine tubulin; [1]): ≤ 3 µM

CC[C@H](C)[C@@H]([C@@H](CC(=O)N1CCC[C@H]1[C@H](OC)[C@@H](C)C(=O)N[C@H](C)[C@@H](OC(=O)NCCOCCOCCOCCOCCOCCOCCOCCOC)c1ccccc1)OC)N(C)C(=O)[C@@H](NC(=O)[C@@H](NC)C(C)C)C(C)C [Example U-011] (H-[NMeV]V[Dil][Dolaproine][X5]-{NH(CH2CH2O)8Me})
IC50 (porcine tubulin; [1]): ≤ 3 µM

CC[C@H](C)[C@@H]([C@@H](CC(=O)N1CCC[C@H]1[C@H](OC)[C@@H](C)C(=O)N[C@H](C)[C@@H](O)c1ccccc1)OC)N(C)C(=O)[C@@H](NC(=O)[C@H](C(C)C)N(C)CCCC(=O)N[C@H]1CCc2c(C)c(F)cc3nc4c(c1c23)Cn1c-4cc2c(c1=O)COC(=O)[C@]2(O)CC)C(C)C [Example U-017]
IC50 (porcine tubulin): ≤ 3 µM

CC[C@H](C)[C@@H]([C@@H](CC(=O)N1CCC[C@H]1[C@H](OC)[C@@H](C)C(=O)N[C@H](C)[C@@H](OP(=O)(O)O)c1ccccc1)OC)N(C)C(=O)[C@@H](NC(=O)[C@@H](NC)C(C)C)C(C)C [Example U-030] (H-[NMeV]V[Dil][Dolaproine]-X3)
IC50 (porcine tubulin; [1]): ≤ 3 µM

CC[C@H](C)[C@@H]([C@@H](CC(=O)N1CCC[C@H]1[C@H](OC)[C@@H](C)C(=O)N[C@H](C)[C@@H](OC(=O)NCc1c[nH]nn1)c1ccccc1)OC)N(C)C(=O)[C@@H](NC(=O)[C@@H](NC)C(C)C)C(C)C [Example U-021] (H-[NMeV]V[Dil][Dolaproine][X5]-X8)
IC50 (porcine tubulin; [1]): ≤ 3 µM

CC[C@H](C)[C@@H]([C@@H](CC(=O)N1CCC[C@H]1[C@H](OC)[C@@H](C)C(=O)N[C@H](C)[C@@H](OP(=O)(O)O)c1ccccc1)OC)N(C)C(=O)[C@@H](NC(=O)[C@H](C(C)C)N(C)C)C(C)C [Example U-031]
IC50 (porcine tubulin; [1]): ≤ 3 µM

CC[C@H](C)[C@@H]([C@@H](CC(=O)N1CCC[C@H]1[C@H](OC)[C@@H](C)C(=O)N[C@H](C)[C@@H](O)c1ccccc1)OC)N(C)C(=O)[C@@H](NC(=O)[C@H](C(C)C)N(C)C(=O)CNC(=O)CN)C(C)C [Example U-009] (H-GG[NMeV]V[Dil][Dolaproine]-X1)
IC50 (porcine tubulin; [1]): ≤ 3 µM
